According to PMC3914206:

Assays:
Assay type in all cases: binding
Settings in all cases: Compound Concentration 10 µM
panel of 442 kinases [1] = molecular target: T1, panel of 442 kinases (Homo sapiens, UniProt P00533, G719C)
T1 construct: purchased KINOMEscan
Description: (§1) We assessed the selectivity of members of this scaffold using the KINOMEscan methodology across a near comprehensive panel of 442 kinases [[18,27]].

panel of 442 kinases [2] = molecular target: T2, panel of 442 kinases (Homo sapiens, UniProt P08069)
T2 construct: purchased KINOMEscan
Description: as §1

panel of 442 kinases [3] = molecular target: T3, panel of 442 kinases (Homo sapiens, UniProt Q04771)
T3 construct: purchased KINOMEscan
T3 sequence (Q04771 21-509): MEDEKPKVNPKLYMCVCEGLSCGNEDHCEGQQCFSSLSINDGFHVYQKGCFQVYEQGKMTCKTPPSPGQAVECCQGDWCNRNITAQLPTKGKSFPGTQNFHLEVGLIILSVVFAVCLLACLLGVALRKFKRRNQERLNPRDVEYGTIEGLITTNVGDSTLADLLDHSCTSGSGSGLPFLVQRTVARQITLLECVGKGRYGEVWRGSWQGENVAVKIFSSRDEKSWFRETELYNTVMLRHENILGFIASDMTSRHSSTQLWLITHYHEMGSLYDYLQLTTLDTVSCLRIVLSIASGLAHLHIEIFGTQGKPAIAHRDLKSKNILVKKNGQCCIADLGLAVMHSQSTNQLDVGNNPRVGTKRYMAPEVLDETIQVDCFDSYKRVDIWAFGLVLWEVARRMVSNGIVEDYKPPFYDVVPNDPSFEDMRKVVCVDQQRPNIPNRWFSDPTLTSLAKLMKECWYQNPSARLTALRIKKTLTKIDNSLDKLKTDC
Description: as §1

T1 sequence (P00533 25-1210 G719C): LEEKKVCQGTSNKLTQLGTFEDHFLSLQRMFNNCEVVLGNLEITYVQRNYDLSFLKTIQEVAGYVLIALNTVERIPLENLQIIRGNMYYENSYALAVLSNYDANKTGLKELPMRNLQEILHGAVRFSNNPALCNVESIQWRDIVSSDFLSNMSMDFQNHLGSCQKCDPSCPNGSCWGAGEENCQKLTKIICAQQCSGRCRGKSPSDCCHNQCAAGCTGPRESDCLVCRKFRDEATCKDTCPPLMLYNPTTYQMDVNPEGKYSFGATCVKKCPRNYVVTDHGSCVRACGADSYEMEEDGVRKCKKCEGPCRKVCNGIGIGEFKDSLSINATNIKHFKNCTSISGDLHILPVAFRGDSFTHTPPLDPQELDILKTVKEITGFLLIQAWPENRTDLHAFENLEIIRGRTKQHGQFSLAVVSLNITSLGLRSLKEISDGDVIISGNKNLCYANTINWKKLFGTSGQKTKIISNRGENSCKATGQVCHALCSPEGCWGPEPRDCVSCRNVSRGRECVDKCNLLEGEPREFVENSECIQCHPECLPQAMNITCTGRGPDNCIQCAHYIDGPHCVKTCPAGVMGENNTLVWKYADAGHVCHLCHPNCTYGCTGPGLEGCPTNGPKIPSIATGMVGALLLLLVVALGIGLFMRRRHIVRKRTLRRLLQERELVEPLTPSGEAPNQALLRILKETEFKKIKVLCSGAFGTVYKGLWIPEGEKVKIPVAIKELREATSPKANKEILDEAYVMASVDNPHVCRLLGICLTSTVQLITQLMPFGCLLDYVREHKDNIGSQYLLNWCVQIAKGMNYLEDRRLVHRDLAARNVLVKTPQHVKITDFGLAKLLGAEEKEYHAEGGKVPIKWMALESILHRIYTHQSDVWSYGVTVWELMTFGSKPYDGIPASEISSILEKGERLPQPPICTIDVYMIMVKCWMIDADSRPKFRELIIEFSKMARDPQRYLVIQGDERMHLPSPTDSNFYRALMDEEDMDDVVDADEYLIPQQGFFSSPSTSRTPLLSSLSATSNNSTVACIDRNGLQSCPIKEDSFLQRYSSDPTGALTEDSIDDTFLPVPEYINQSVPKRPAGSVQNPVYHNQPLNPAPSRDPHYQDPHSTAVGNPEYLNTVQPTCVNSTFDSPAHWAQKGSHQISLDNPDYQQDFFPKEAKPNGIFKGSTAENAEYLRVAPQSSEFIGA
T2 sequence (P08069 31-1367): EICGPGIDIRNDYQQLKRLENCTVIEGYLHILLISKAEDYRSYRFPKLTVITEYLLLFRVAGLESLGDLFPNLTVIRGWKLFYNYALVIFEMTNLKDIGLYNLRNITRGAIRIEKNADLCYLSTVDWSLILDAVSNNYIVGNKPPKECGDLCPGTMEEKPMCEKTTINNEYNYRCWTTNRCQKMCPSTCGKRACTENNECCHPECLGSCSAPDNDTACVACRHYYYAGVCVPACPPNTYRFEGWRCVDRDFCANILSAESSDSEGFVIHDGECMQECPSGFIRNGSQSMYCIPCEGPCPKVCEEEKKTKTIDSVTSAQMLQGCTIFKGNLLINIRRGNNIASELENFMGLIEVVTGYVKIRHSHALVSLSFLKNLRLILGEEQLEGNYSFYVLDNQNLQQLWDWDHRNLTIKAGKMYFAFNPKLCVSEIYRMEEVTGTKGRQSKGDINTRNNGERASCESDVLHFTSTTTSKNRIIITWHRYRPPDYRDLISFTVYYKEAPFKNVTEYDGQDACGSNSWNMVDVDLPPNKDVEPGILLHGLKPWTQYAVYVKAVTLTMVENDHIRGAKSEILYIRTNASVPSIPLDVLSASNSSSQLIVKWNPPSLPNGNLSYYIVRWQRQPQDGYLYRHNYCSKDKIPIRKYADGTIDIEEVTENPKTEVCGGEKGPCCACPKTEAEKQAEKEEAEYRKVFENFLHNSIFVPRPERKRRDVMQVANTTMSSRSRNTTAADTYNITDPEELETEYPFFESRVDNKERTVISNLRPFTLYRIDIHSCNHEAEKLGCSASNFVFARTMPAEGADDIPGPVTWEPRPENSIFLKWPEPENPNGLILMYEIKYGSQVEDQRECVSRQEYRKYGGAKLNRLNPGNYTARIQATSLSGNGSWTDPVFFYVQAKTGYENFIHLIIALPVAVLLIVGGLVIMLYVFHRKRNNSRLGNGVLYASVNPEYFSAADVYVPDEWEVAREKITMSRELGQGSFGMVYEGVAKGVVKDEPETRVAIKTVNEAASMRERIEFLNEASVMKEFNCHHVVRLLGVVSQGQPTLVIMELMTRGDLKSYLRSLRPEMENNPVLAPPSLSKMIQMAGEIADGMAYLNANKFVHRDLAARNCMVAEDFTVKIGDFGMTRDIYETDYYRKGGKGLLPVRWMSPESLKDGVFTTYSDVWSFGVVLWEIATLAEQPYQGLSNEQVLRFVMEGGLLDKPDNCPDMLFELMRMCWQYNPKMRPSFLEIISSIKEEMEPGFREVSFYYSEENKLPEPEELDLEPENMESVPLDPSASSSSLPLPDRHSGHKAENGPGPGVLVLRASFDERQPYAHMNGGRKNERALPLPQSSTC

Row | Structure (SMILES) | KINOMEscan: EGFR(G719C) (panel of 442 kinases [1]) | KINOMEscan: IGF1R (panel of 442 kinases [2]) | KINOMEscan: ACVR1 (panel of 442 kinases [3])
1 | COc1cc(C(=O)N2CCC(N3CCN(C)CC3)CC2)ccc1Nc1ncc2c(n1)N(C)c1ccccc1C(=O)N2C [15 (LRRK2-IN-1)] | 100 | 96 | 98
2 | COc1cc(C(=O)N2CCC(N3CCN(C)CC3)CC2)ccc1Nc1ncc2c(n1)N1CCc3cccc(c31)C(=O)N2C [Compound 24] | 66 |  | 
3 | COc1cc(C(=O)N2CCC(N3CCN(C)CC3)CC2)ccc1Nc1ncc2c(n1)N(C1CCCC1)c1ccccc1C(=O)N2C [Compound 25, 11-cyclopentyl-2-((2-methoxy-4-(4-(4-methylpiperazin-1-yl)piperidine-1-carbonyl)phenyl)amino)-5-methyl-5H-benzo[e]pyrimido[5,4-b][1,4]diazepin-6(11H)-one] | 71 | 89 | 100
4 | CCOc1cc(C(=O)N2CCC(N3CCN(C)CC3)CC2)ccc1Nc1ncc2c(n1)N(C1CCCC1)c1ccccc1C(=O)N2C [Compound 26] | 100 | 100 | 100
